Source: patent publication US8841482B2, “Method for synthesizing rare earth metal extractant” (Shin-Etsu Chemical Co., Ltd., priority 2010, dated 2014)

Assay: extraction/separation performance test (solvent extraction of Pr/Nd, back extraction, ICP atomic emission)
Format: physicochemical
Conditions: aqueous Pr:Nd 1:1, 0.1 mol/L Pr+Nd, 20° C.
Method: The stoichiometric amount of the reaction product, D2EHDGAA in Example 1 or Comparative Example 1 was diluted with hexanol to form an organic solution having a D2EHDGAA concentration of 0.3 mol/L, which might become an organic phase.
A mixed rare earth metal aqueous solution was prepared by dissolving praseodymium chloride and neodymium chloride in water in a molar ratio Pr:Nd of 1:1 and a concentration of 0.1 mol/L of Pr+Nd to form an aqueous solution, which might become an aqueous phase. A separatory funnel was charged with 100 mL of the organic solution and 100 mL of the aqueous solution and shaken at 20° C. for about 20 minutes to effect extraction. After equilibrium was reached, the liquid was allowed to separate into organic and aqueous phases. A separatory funnel was charged with 100 mL of the thus separated organic phase and 100 mL of 5N hydrochloric acid and shaken at 20° C. for about 20 minutes whereby the rare earth element once extracted in the organic phase was back extracted in the hydrochloric acid aqueous solution. The concentrations of praseodymium and neodymium in the aqueous phase and the back-extracted hydrochloric acid aqueous solution were measured by an ICP atomic emission spectrometer ICP-7500 (Shimadzu Corp.).
The stoichiometric amount of the reaction product, D2EHDGAA in Example 5, 6 or Comparative Example 5, 6 was diluted with toluene to form an organic solution having a D2EHDGAA concentration of 0.3 mol/L, which might become an organic phase.

SMILES | Nd/Pr separation factor (D2EHDGAA 0.3 mol/L in toluene) | Phase separation (D2EHDGAA 0.3 mol/L in toluene) | Nd/Pr separation factor (D2EHDGAA 0.3 mol/L in kerosene) | Phase separation (D2EHDGAA 0.3 mol/L in kerosene) | also measured
CCCCC(CC)CN(CC(CC)CCCC)C(=O)COCC(=O)O (stereo not drawn) [Example 5, N,N-bis(2-ethylhexyl)-3-oxapentane-1,5-amic acid] | 2.5 | definite |  |  | 
CCCCC(CC)CN(CC(CC)CCCC)C(=O)COCC(=O)O (stereo not drawn) [Example 4, N,N-bis(2-ethylhexyl)-3-oxapentane-1,5-amic acid] |  |  | 2.5 | definite | 
CCCCC(CC)CN(CC(CC)CCCC)C(=O)COCC(=O)O (stereo not drawn) [Example 1, N,N-bis(2-ethylhexyl)-3-oxapentane-1,5-amic acid] |  |  |  |  | Nd/Pr separation factor (D2EHDGAA 0.3 mol/L in hexanol): 2.5; Phase separation (D2EHDGAA 0.3 mol/L in hexanol): definite
CCCCCCCCN(CCCCCCCC)C(=O)COCC(=O)O [Example 2, N,N-dioctyl-3-oxapentane-1,5-amic acid] |  |  |  |  | Nd/Pr separation factor (DODGAA 0.3 mol/L in hexanol): 2.5; Phase separation (DODGAA 0.3 mol/L in hexanol): definite
CCCCC(CC)CN(CC(CC)CCCC)C(=O)COCC(=O)O (stereo not drawn) [Example 6, N,N-bis(2-ethylhexyl)-3-oxapentane-1,5-amic acid] | 2.5 | definite |  |  | 
CCCCC(CC)CN(CC(CC)CCCC)C(=O)COCC(=O)O (stereo not drawn) [Example 3, N,N-bis(2-ethylhexyl)-3-oxapentane-1,5-amic acid] |  |  | 2.5 | definite | 
